Assay results published in patent publication US6685617B1, “Inhibitors of α4β1 mediated cell adhesion” (Pharmacia & Upjohn Company, priority 1998, dated 2004).
Structures can show the parent of a compound that is named as a salt.

Key:
[1] = biological target: T1, α4β1 integrin (Jurkat cell adhesion to immobilized CS-1 derived peptide CLHPGEILDVPST) (Homo sapiens, UniProt P05556+P13612); assay: Jurkat-CS-1 assay; format: cell-based; conditions: Jurkat cells on CS-1 peptide coated plates; read-out: JK/CS-1 (Jurkat CS-1 Assay IC50 value range)
T1 construct: 100 μl of Jurkat cells (2.5×10^6 cells/ml) in DMEM plus BSA; host or cells: Jurkat T-cell line
Outline: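 CS-1 peptide was SPDP-crosslinked onto HSA-coated plates and blocked with BSA. Jurkat cells (2.5×10^6 cells/ml) in DMEM/BSA were mixed with compound, generally at 100, 20, 5 and 1.25 μM, and allowed to adhere for 1 hr at 37° C. Bound cells were fixed, stained with toluidine blue and quantified by OD590.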

[2] = biological target: T2, α4β1 integrin (Jurkat T-cell adhesion to IL-1 stimulated endothelial cell monolayers) (Homo sapiens, UniProt P05556+P13612); assay: Jurkat-endothelial cell adhesion assay (Jurkat EC); format: cell-based; conditions: Jurkat cells on IL-1 stimulated human umbilical vein endothelial cells; read-out: JK/EC (Jurkat EC Assay IC50 value range)
T2 construct: a T-cell line, Jurkat, known to express the α4β1 integrin; host or cells: Jurkat T-cell line
Outline: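 Adhesion was expressed as percent of compound-free fluorescence after 20 min at 37° C (following 5 min settling on ice) of BCECF-loaded Jurkat T cells on washed HUVEC monolayers. The endothelium, passage 6 or lower, had received 0.1 ng/ml recombinant IL-1 for 4 hr at 37° C; compound was premixed with the T cells, typically at 100, 20, 5 and 1.25 μM.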

T2 sequence (P13612 34-1032): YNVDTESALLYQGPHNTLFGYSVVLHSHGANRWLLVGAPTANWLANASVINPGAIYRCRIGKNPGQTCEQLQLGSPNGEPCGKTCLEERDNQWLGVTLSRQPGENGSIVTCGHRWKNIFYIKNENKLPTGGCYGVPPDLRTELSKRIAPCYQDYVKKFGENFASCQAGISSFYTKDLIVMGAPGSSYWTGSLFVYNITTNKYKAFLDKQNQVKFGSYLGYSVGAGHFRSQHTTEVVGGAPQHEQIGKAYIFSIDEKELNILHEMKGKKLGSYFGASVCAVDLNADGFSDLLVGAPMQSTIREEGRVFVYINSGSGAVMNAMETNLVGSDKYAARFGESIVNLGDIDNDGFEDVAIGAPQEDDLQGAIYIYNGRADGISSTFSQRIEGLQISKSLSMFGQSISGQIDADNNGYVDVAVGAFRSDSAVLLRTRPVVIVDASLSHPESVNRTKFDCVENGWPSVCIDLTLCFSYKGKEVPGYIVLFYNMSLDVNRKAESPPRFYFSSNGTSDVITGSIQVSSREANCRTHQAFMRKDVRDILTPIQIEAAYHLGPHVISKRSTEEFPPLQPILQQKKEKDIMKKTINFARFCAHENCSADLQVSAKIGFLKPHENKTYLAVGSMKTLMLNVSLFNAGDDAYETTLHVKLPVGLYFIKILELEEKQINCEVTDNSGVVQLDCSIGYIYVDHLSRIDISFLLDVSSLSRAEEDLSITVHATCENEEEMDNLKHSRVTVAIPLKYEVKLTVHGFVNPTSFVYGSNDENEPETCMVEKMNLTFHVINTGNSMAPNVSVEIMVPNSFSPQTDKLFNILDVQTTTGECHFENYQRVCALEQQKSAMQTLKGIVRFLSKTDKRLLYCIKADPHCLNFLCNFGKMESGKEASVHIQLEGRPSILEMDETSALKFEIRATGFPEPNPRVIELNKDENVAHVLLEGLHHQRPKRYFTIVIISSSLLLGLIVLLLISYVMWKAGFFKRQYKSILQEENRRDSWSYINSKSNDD
T2 sequence (P05556 21-798): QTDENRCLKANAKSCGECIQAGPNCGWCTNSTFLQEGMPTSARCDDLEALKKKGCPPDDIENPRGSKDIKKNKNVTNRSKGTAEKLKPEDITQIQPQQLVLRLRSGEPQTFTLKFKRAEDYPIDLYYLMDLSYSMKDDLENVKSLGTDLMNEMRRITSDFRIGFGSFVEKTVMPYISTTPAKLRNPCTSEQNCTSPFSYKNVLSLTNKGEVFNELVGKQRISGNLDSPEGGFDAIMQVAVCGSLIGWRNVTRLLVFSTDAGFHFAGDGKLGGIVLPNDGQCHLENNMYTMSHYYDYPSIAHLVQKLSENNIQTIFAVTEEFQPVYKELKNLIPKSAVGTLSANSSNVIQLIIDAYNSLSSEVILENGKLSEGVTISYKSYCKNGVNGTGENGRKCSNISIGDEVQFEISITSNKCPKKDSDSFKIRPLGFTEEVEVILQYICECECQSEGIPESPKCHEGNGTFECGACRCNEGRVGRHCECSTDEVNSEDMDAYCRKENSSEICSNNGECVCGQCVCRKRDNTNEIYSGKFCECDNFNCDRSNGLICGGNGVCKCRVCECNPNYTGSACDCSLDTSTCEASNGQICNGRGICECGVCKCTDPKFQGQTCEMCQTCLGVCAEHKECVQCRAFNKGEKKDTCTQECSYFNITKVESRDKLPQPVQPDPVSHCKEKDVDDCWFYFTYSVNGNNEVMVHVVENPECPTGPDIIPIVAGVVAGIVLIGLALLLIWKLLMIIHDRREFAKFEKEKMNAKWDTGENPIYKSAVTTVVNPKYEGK
T1 sequence (P13612 34-1032): as the sequence (P13612 34-1032) above
T1 sequence (P05556 21-798): as the sequence (P05556 21-798) above

Question: How did the IC50 [1] turn out when `CCOC(=O)N1CSC[C@@H]1C(=O)N[C@@H](Cc1ccc(NC(=O)c2c(Cl)cccc2Cl)cc1)C(=O)OC` (relative stereo) [Example 4, [S-(R*,R*)]-4-[[[1-[[4-[(2,6-Dichlorobenzoyl)amino]phenyl]methyl]-2-methoxy-2-oxoethyl]amino]carbonyl]-3-thiazolidinecarboxylic Acid 3-Ethyl Ester] was run?
Answer: ≤ 50 nM

Question: And the IC50 [2]?
Answer: ≤ 250 nM

Question: With `CC(C)=CCN1C(=O)CCC1(CCC(=O)O)CCC(=O)N[C@@H](Cc1ccc(OCc2c(Cl)cccc2Cl)cc1)C(=O)O` (stereo partly drawn) [Example 109, 2-[3-[[(1S)-1-Carboxy-2-[4-[(2,6-dichlorophenyl)methoxy]phenyl]ethyl]amino]-3-oxo-propyl]-1-(3-methyl-2-butenyl)-5-oxo-2-pyrrolidinepropanoic Acid] as the molecule, how does the IC50 [1] read?
Answer: ≥ 750 nM

Question: And the IC50 [2]?
Answer: ≥ 1000 nM

Question: For `C[C@@H](c1ccccc1)N1[C@H](C(=O)O)C[C@H]1C(=O)N[C@@H](Cc1ccc(NC(=O)c2c(Cl)cccc2Cl)cc1)C(=O)O` [Example 129, [2S-[1(R*),2α,4β(R*)]]-4-[[[1-Carboxy-2-[4-[(2,6-dichlorobenzoyl)amino]phenyl]ethyl]-amino]carbonyl]-1-(1-phenylethyl)-2-azetidinecarboxylic Acid Dilithium Salt], which IC50 [1] is on record?
Answer: 50 to 750 nM

Question: And the IC50 [2]?
Answer: 250 to 1000 nM

Question: Which results are given for `O=C(O)CCC(=O)N1CSC[C@@H]1C(=O)N[C@@H](Cc1ccc(NC(=O)c2c(Cl)cccc2Cl)cc1)C(=O)O` (relative stereo) [Example 9, [S-(R*,R*)]-4-[[[1-Carboxy-2-[4-[(2,6-dichlorobenzoyl)amino]phenyl]ethyl]amino]carbonyl]-γ-oxo-3-thiazolidinebutanoic Acid]?
Answer: IC50 [1]: ≤ 50 nM; IC50 [2]: ≤ 250 nM

Question: How did the IC50 [1] turn out when `O=C(Nc1ccc(C[C@H](NC(=O)[C@H]2CSCN2S(=O)(=O)c2ccccc2)C(=O)O)cc1)c1c(Cl)cccc1Cl` [Example 47] was run?
Answer: ≤ 50 nM

Question: And the IC50 [2]?
Answer: ≤ 250 nM

Question: What does the source list for `CCOC(=O)N1[C@@H](C(=O)O)C[C@@H]1C(=O)N[C@@H](Cc1ccc(NC(=O)c2c(Cl)cccc2Cl)cc1)C(=O)O` [Example 141, [2R-(2α,4β(S*)]-4-[[[1-Carboxy-2-[4-[(2,6-dichlorobenzoyl)amino]phenyl]ethyl]-amino]-carbonyl]-1,2-azetidinedicarboxylic Acid 1-Ethyl Ester]?
Answer: IC50 [1]: 50 to 750 nM; IC50 [2]: ≥ 1000 nM

Question: What does the source list for `O=C(O)CCC(=O)N1CCSC[C@H]1C(=O)N[C@@H](Cc1ccc(NC(=O)c2c(Cl)cccc2Cl)cc1)C(=O)O` (relative stereo) [Example 99, [R-(R*,S*)]-3-[[[1-Carboxy-2-[4-[(2,6-dichlorobenzoyl)amino]phenyl]ethyl]amino]carbonyl]-γ-oxo-4-thiomorpholinebutanoic Acid]?
Answer: IC50 [1]: ≤ 50 nM; IC50 [2]: ≤ 250 nM

Question: With `COC(=O)[C@H](Cc1ccc(NC(=O)c2c(Cl)cccc2Cl)cc1)NC(=O)[C@H]1CSCN1C(=O)OCCN1CCOCC1` (relative stereo) [Example 24, [S-(R*,R*)]-4-[[[1-[[4-[(2,6-Dichlorobenzoyl)amino]phenyl]methyl]-2-methoxy-2-oxoethyl]amino]carbonyl]-3-thiazolidinecarboxylic Acid 3-[2-(4-Morpholinyl)ethyl]ester] as the molecule, how does the IC50 [1] read?
Answer: 50 to 750 nM

Question: And the IC50 [2]?
Answer: 250 to 1000 nM

Question: `CC(C)(C)OC(=O)N1CCSC[C@H]1C(=O)N[C@@H](Cc1ccc(NC(=O)c2c(Cl)cccc2Cl)cc1)C(=O)O` (relative stereo) [Example 100, [R-(R*,S*)]-3-[[[1-Carboxy-2-[4-[(2,6-dichlorobenzoyl)amino]phenyl]ethyl]amino]carbonyl]-4-thiomorpholinecarboxylic Acid 4-(1,1-Dimethylethyl)ester] was tested. Which IC50 [1] did it give?
Answer: 50 to 750 nM

Question: What about the IC50 [2] of the same molecule?
Answer: 250 to 1000 nM

Question: For `COC(=O)[C@H](Cc1ccc(NC(=O)c2c(Cl)cccc2Cl)cc1)NC(=O)[C@@H]1COCN1C(=O)OCc1ccccc1` [Example 124, [S-(R*,R*)]-4-[[[1-[[4-[(2,6-Dichlorobenzoyl)amino]phenyl]methyl]-2-methoxy-2-oxoethyl]amino]carbonyl]-3-oxazolidinecarboxylic Acid 3-Phenylmethyl Ester], which IC50 [1] is on record?
Answer: ≥ 750 nM

Question: What about the IC50 [2] of the same molecule?
Answer: ≥ 1000 nM
